In patent publication US20220305003A1, “METHODS OF TREATING CANCER WITH AN INHIBITOR OF ZNF827” (CHILDREN'S MEDICAL RESEARCH INSTITUTE, priority 2019, published 2022):

How the values were obtained:
Type in all cases: cell-based
HT1080 cells = assay: RPA foci by immunofluorescence in HT1080 cells
Method: Topotecan and aphidicolin were used in this study. For experiments where they were used to cause replication stress and DNA damage, cells were treated with topotecan 2 μg/mL for either 1 hour or 24 hours, or aphidicolin 1 μM for 20 hours. For replication fork stalling induction in the PCNA colocalisation experiments, cells were treated with aphidicolin 0.4 μM for 6-8 hours. Topotecan and aphidicolin were dissolved in DMSO. DMSO was used as a control.
Cells were transfected using Lipofectamine RNAiMAX transfection reagent (ThermoFisher Scientific) with an siRNA concentration of […]. For transfection in a 75 cm^2flask, 3 mL reduced serum medium Opti-MEM (Gibco) was combined with 15 μL of 20 μM siRNA, mixed gently to cover the surface area of the flask and incubated at room temperature for 5 minutes. 30 μL of Lipofectamine RNAiMAX transfection reagent was then added to the mixture, and mixed and incubated for a further 15 minutes at room temperature. Meanwhile, cells to be transfected were trypsinised, resuspended in DMEM supplemented with 10% FCS, and counted using a Beckman Coulter cell counter. 0.8-1×10^6 cells in DMEM supplemented with 10% FCS were directly pipetted onto the transfection mixture in the flask, and shaken gently to mix. Additional DMEM supplemented with 10% FCS was added to the flask up to a total volume of 15 mL. Cells were harvested 72 hours post-transfection for knockdown validation and subsequent experiments.
Cells cultured on coverslips were fixed in 2% paraformaldehyde in PBS at room temperature for 10 minutes. Cells fixed on coverslips were rinsed with deionised water, and then permeabilised using KCM buffer (120 mM potassium chloride, 20 mM NaCl, 10 mM Tris, pH 7.5, 0.1% Triton X-100) at room temperature for 10 minutes. Coverslips were blocked with antibody diluent buffer (ABDIL—20 mM Tris-Cl, pH 7.5, 2% BSA, 0.2% fish gelatine, 150 mM NaCl, 0.1% Triton X-100, 0.1% sodium azide) containing 100 μg/mL RNase A at room temperature for one hour. […] Quantitated analysis was conducted by automation with CellProfiler (Broad Institute).

U-2 OS cells = assay: IncuCyte live cell growth and apoptosis (Nucview488 caspase 3) assay
Method: Considering the effects of ZNF827 depletion on DNA replication and the cell cycle, the impact of ZNF827 on cell proliferation and cell viability was examined. Live cell assays were performed on U-2 OS cells in the IncuCyte® to monitor real-time cell proliferation by confluency and cell viability using Nucview488, a fluorescent reporting dye for caspase 3 activity that allows quantitative measurement of apoptotic activity. Cells were treated with topotecan or DMSO control for the first half of the assay and treatments were removed for the remaining time.
Cells were seeded at 20-30% in a 96-well black plate with clear bottom (3603, Corning) and left to adhere at 37° C. with 10% CO2 for at least 3 hours. The media was aspirated and replaced with phenol red free media supplemented 2 μM Nucview® 488 Caspase-3 substrate (Biotium) and placed into the IncuCyte® for baseline imaging without drug treatment. Topotecan 2 μg/mL or DMSO control was added to the wells, and incubated at 37° C. with 10% CO2 for 1 hour. The media was then aspirated, cells were washed carefully once with warm PBS, and the media replaced with phenol red free media supplemented 2 μM Nucview® 488 Caspase-3 substrate (Biotium). The plate was then placed back into IncuCyte®, imaged immediately post drug treatment, and then every 4 hours for 72 to 84 hours in the phase and green channels. Image analysis was performed with the IncuCyte® Zoom software. Cell growth was measured as % confluency over time, and apoptotic activity as green object confluence/area over time.

ATR-CHK1 pathway = assay: Western blot of ATR downstream effectors (p-CHK1 S345, p-RPA2 S33, pCHK2); conditions: U-2 OS
Method: Protein was extracted from 10^6 cells per sample by vigorous pipetting and incubation at room temperature for 30 minutes in 100 μL of EDTA-free 4× LDS buffer (106 mM Tris-Cl, 141 mM Tris-Base, 40% Glycerol, 2% LDS, 0.075% SERVA Blue G50) supplemented with 2.5% Benzonase® nuclease 25 U/μL (Novagen, Merck Millipore) and 2% beta-mercaptoethanol (Sigma). Following protein extraction, all samples were denatured at 90° C. for 15 minutes before resolving on NuPAGE® Novex® 4-12% Bis-Tris Mini Gels (Invitrogen) with 1×10^5 cells (10 μL) loaded per lane in NuPAGE® MES SDS running buffer (Invitrogen) at 200 V for 50 minutes. Gels were transferred onto a PVDF membrane (Immobilon-P, Millipore) in transfer buffer (190 mM glycine, 25 mM Tris and 10% methanol) at 100 V for 60 minutes. Membranes were stained with Ponceau-S for 30 minutes, de-stained then blocked for 1 hour at room temperature in 5% skim milk dissolved in PBS with 0.1% Tween-20 (PBST) or TBS with 0.1% Tween-20 (TBST) for phosphorylated proteins. Membranes were cut into appropriate segments based on the size markers, with each segment incubated with antibodies for proteins of interest diluted in 0.5% skim milk in PBST/TBST or 5% BSA overnight at 4° C. (Refer to Table 4 for the list of antibodies). Blots were then washed for 3×5 minutes in PBST/TBST followed by incubation for 1 hour at room temperature with appropriate secondary antibodies (See Table 5) diluted 1:5000 in 0.5% skim milk or 5% BSA in PBST/TBST. Blots were washed for 3×5 minutes in PBST/TBST before incubation with SuperSignal West Pico Chemiluminescent Substrate (ThermoFisher Scientific) for 5 minutes at room temperature. Blots were then exposed to a Luminescent Image Analyser (LAS-4000, Fujifilm).
To investigate the precise function of ZNF827 in the ATR pathway, the effect of ZNF827 depletion on the downstream effectors of ATR was examined. To activate ATR, U-2 OS cells were treated with DNA damage and replication stress inducing agents topotecan 2 μg/mL for 24 hours or aphidicolin 1 μM for 20 hours. […] Phosphorylation of CHK2 was not affected by ZNF827 depletion, further supporting that the role of ZNF827 in DNA damage and repair is independent of ATM (FIG. 6d).

[1] = agent alone (topotecan 2 μg/mL 24 hr, or 72 hr siRNA knockdown in unchallenged cells)
[2] = agent alone (topotecan 2 μg/mL 1 hour then removed, or ZNF827 depletion with DMSO)
[3] = agent alone (topotecan 2 μg/mL, or ZNF827 depletion vs scrambled control)
[4] = agent alone (topotecan 2 μg/mL 24 hours, aphidicolin 1 μM 20 hours, or siRNA knockdown in unchallenged cells)

For `CC[C@@]1(O)C(=O)OCc2c1cc1n(c2=O)Cc2cc3c(CN(C)C)c(O)ccc3nc2-1` [topotecan], which “total nuclear RPA foci” value (HT1080 cells; [1]) is on record?
The value was “RPA foci only became visible upon topotecan treatment”.

What about the “cell proliferation (% confluency over time)” value (U-2 OS cells; [2]) of the same compound?
Its value is “effectively inhibited cell growth”.

And the “apoptotic activity (Nucview488 caspase 3)” value (from here on “apoptotic activity”) (U-2 OS cells; [3])?
The value was “much greater apoptotic activity”.

What about the “phosphorylation of CHK1 S345” value (ATR-CHK1 pathway; [4]) of the same compound?
The value was “became phosphorylated at S345”.

What about the “phosphorylation of RPA S33” value (ATR-CHK1 pathway; topotecan 2 μg/mL 24 hours) of the same compound?
Its value is “phosphorylated at S33”.

Which “total nuclear RPA foci” value (HT1080 cells; 72 hr siRNA knockdown of ZNF827 in topotecan-treated cells (2 μg/mL, 24 hr)) does the source give for “siZNF827: Stealth RNAi siRNA ZNF827HSS135819 duplex oligoribonucleotides (Invitrogen), SEQ ID NO: 12 and 13 (chain 1 GGGCAGUCUUCUGGCUGAGAAAUCA; chain 2 UGAUUUCUCAGCCAGAAGACUGCCC; listed as RNA, further chemistry not given here)” here?
Its value is “significantly greater increase in overall nuclear RPA foci”.

What about the “total nuclear RPA foci” value (HT1080 cells; [1]) of the same compound?
Its value is “did not change the total number of nuclear RPA foci”.

And the “cell proliferation (% confluency over time)” value (U-2 OS cells; ZNF827 depletion in conjunction with topotecan 2 μg/mL)?
The value was “completely abrogated cell proliferation”.

And the “cell proliferation (% confluency over time)” value (U-2 OS cells; [2])?
Its value is “reduced cell proliferation, surprisingly to a similar efficacy as topotecan”.

And the “apoptotic activity” value (U-2 OS cells; [3])?
Its value is “significantly higher apoptotic activity compared to scrambled control”.

What about the “apoptotic activity” value (U-2 OS cells; combination of ZNF827 depletion and topotecan, compared with topotecan alone) of the same compound?
The value was “exceeded markedly”.

What about the “phosphorylation of CHK1 S345” value (ATR-CHK1 pathway; 72 hr siRNA knockdown in topotecan- or aphidicolin-treated cells) of the same compound?
The value was “markedly suppressed”.

What about the “phosphorylation of RPA S33” value (ATR-CHK1 pathway; 72 hr siRNA knockdown in topotecan-treated cells) of the same compound?
The value was “markedly suppressed”.

And the “phosphorylation of CHK2” value (ATR-CHK1 pathway; 72 hr siRNA knockdown, topotecan 2 μg/mL 24 hr or DMSO)?
Its value is “not affected”.

What about the “phosphorylation of CHK1 S345” value (ATR-CHK1 pathway; [4]) of the same compound?
The value was “reduced baseline phosphorylation of CHK1 S345”.
